This assay deals with T1, human type 1 glycine transporter (GlyT1) (Homo sapiens, UniProt P48067).
T1 construct: T98G cells (glioma cells) expressing human type 1 glycine transporter (GlyT1) were used
T1 sequence (P48067 1-706): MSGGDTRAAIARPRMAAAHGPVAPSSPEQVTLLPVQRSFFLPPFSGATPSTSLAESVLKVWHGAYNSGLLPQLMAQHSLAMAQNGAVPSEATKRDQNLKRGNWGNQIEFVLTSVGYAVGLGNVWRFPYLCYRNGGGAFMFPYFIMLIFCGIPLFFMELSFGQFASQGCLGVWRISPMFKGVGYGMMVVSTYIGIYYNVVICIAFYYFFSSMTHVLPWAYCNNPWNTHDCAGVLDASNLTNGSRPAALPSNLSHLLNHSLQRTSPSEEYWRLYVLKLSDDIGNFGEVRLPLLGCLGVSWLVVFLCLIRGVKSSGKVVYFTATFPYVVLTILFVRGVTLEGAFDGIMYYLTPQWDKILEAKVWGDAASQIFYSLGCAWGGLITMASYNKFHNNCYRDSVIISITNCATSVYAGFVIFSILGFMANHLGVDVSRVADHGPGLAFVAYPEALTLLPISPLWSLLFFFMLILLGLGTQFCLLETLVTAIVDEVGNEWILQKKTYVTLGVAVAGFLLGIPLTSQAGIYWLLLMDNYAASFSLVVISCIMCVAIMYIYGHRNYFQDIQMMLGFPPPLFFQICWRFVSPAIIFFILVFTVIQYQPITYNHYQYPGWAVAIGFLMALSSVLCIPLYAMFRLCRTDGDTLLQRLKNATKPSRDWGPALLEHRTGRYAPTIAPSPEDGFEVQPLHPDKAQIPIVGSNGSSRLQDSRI
The experiment in a line: Glycine uptake inhibition experiment ([3H]glycine uptake). The following applies: GlyT1. Format: cell-based. The procedure, abridged:
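T98G glioma cells expressing human GlyT1 were pretreated 10 min with compound in HEPES buffer pH 7.4 (0.2% BSA), then incubated with compound plus 250 nM final [3H]glycine for 15 min at room temperature. Intracellular radioactivity was counted after NaOH lysis; 10 μM ALX5407 defined non-specific uptake. IC50 came from 10^−9–10^−5 M curves.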

Structures are written as SMILES.

`O=C(NC(c1cccc(F)c1Cl)[C@]1(O)CC[C@@H](F)CC1)c1nccc(C(F)(F)F)c1Cl` (single isomer, unassigned) [Compound 213, 3-chloro-N-[(2-chloro-3-fluorophenyl)(cis-4-fluoro-1-hydroxycyclohexyl)methyl]-4-(trifluoromethyl)pyridine-2-carboxamide]: the IC50 is 37 nM.

As to `O=C(NC(c1ccnc(Cl)c1)[C@]1(O)CC[C@@H](F)CC1)c1nccc(C(F)(F)F)c1Cl` (single isomer, unassigned) [Compound 257], the IC50 came out at 440 nM.

Consider `O=C(NC(c1cccc(F)c1)C1(O)CCC(F)(F)CC1)c1nccc(C(F)(F)F)c1Cl` (single isomer, unassigned) [Compound 76, 3-chloro-N-[(4,4-difluoro-1-hydroxycyclohexyl)(3-fluorophenyl)methyl]-4-(trifluoromethyl)pyridine-2-carboxamide], for which it took 250 nM to reach half-maximal inhibition (IC50). Compared with the last compound, the IC50 is about 1.8-fold lower.

`CS(=O)(=O)c1cc(C(F)(F)F)cnc1C(=O)NC(c1cccc(F)c1Cl)[C@]1(O)CC[C@@H](F)CC1` (single isomer, unassigned) [Compound 389, N-[(2-chloro-3-fluorophenyl)(cis-4-fluoro-1-hydroxycyclohexyl)methyl]-3-(methylsulfonyl)-5-(trifluoromethyl)pyridine-2-carboxamide] returned an IC50 of 1800 nM.

The compound `O=C(NC(c1cccnc1Cl)C1(O)CCC(F)(F)CC1)c1nccc(C(F)(F)F)c1Cl` (single isomer, unassigned) [Compound 340, 3-chloro-N-[(2-chloropyridin-3-yl)(4,4-difluoro-1-hydroxycyclohexyl)methyl]-4-(trifluoromethyl)pyridine-2-carboxamide] returned an IC50 of 320 nM.

Regarding `CCn1cc(-c2cccc(C(NC(=O)c3nccc4ccccc34)C3(O)CCC(F)(F)CC3)c2)cn1` (centres unmarked) [Compound 139, N-{(4,4-difluoro-1-hydroxycyclohexyl)[3-(1-ethyl-1H-pyrazol-4-yl)phenyl]methyl}isoquinoline-1-carboxamide], the IC50 came to 430 nM. This IC50 and that of the compound before are within 1.5-fold of each other.

With `[2H]C1([2H])C([2H])([2H])C([2H])([2H])C(O)(C(NC(=O)c2nccc(C(F)(F)F)c2Cl)c2cccc(Cl)c2)C([2H])([2H])C1([2H])[2H]` (single isomer, unassigned) [Compound 231, 3-chloro-N-{(3-chlorophenyl)[1-hydroxy(^2H10)cyclohexyl]methyl}-4-(trifluoromethyl)pyridine-2-carboxamide], the IC50 came out at 40 nM.

`COc1cc(C(F)(F)F)cc(C(F)(F)F)c1C(=O)NC(c1ccccc1)C1(O)CCCC1` (centres unmarked) [Compound 29, N-[(1-hydroxycyclopentyl)(phenyl)methyl]-2-methoxy-4,6-bis(trifluoromethyl)benzamide] came in with an IC50 of 2000 nM.

Regarding `COC(=O)c1cccc(C(NC(=O)c2nccc(C(F)(F)F)c2Cl)C2(O)CCCC2)c1` (centres unmarked) [Compound 98, methyl 3-[({[3-chloro-4-(trifluoromethyl)pyridin-2-yl]carbonyl}amino)(1-hydroxycyclopentyl)methyl]benzoate], inhibition was half-maximal at 590 nM (IC50).

`O=C(NC(c1cccc(F)c1F)C1(O)CCC(F)(F)CC1)c1nccc(C(F)(F)F)c1Cl` (single isomer, unassigned) [Compound 164, 3-chloro-N-[(4,4-difluoro-1-hydroxycyclohexyl)(2,3-difluorophenyl)methyl]-4-(trifluoromethyl)pyridine-2-carboxamide] gave an IC50 of 120 nM.

`O=C(NC(c1cc(Cl)ccc1Cl)C1(O)CCCC1)c1nccc(C(F)(F)F)c1Cl` (single isomer, unassigned) [Compound 113, 3-chloro-N-[(2,5-dichlorophenyl)(1-hydroxycyclopentyl)methyl]-4-(trifluoromethyl)pyridine-2-carboxamide] registered an IC50 of 1700 nM.

The compound `O=C(NC(c1cccc(F)c1F)C1(O)CCC(F)(F)CC1)c1ccnc(C(F)(F)F)c1Cl` (single isomer, unassigned) [Compound 165, 3-chloro-N-[(4,4-difluoro-1-hydroxycyclohexyl)(2,3-difluorophenyl)methyl]-2-(trifluromethyl)pyridine-4-carboxamide] registered an IC50 of 210 nM.

`Cc1ccc(C(F)(F)F)c(C(=O)NC(c2cccc(F)c2Cl)[C@]2(O)CC[C@@H](F)CC2)n1` (single isomer, unassigned) [Compound 315, N-[(2-chloro-3-fluorophenyl)(cis-4-fluoro-1-hydroxycyclohexyl)methyl]-6-methyl-3-(trifluoromethyl)pyridine-2-carboxamide]: the midpoint of inhibition, the IC50, lay at 820 nM.

`NC(=O)c1cccc(C(NC(=O)c2nccc(C(F)(F)F)c2Cl)C2(O)CCCC2)c1` (centres unmarked) [Compound 106, N-[(3-carbamoylphenyl)(1-hydroxycyclopentyl)methyl]-3-chloro-4-(trifluoromethyl)pyridine-2-carboxamide] returned an IC50 of 900 nM.

Turning to `O=C(NC(c1cccc(-n2nccn2)c1)C1(O)CCCC1)c1nccc(C(F)(F)F)c1Cl` (centres unmarked) [Compound 79, 3-chloro-N-{(1-hydroxycyclopentyl)[3-(2H-1,2,3-triazol-2-yl)phenyl]methyl}-4-(trifluoromethyl)pyridine-2-carboxamide], the IC50 turned out to be 310 nM.

Regarding `O=C(NC(c1cccc(F)c1)C1(O)CCCC1)c1nccc(C(F)(F)F)c1Cl` (centres unmarked) [Compound 40, 3-chloro-N-[(3-fluorophenyl)(1-hydroxycyclopentyl)methyl]-4-(trifluoromethyl)pyridine-2-carboxamide], the IC50 was 110 nM.

With `O=C(NC(c1cccc(-c2ccccn2)c1)C1(O)CCC(F)(F)CC1)c1ccnc(C(F)(F)F)c1Cl` (single isomer, unassigned) [Compound 189, 3-chloro-N-{(4,4-difluoro-1-hydroxycyclohexyl)[3-(pyridin-2-yl)phenyl]methyl}-2-(trifluoromethyl)pyridine-4-carboxamide], 200 nM corresponded to half-maximal inhibition (IC50).

Consider `O=C(NC(c1cccc(F)c1)C1(O)CCCC1)c1cccc(C(F)(F)F)c1Cl` (centres unmarked) [Compound 65, 2-chloro-N-[(3-fluorophenyl)(1-hydroxycyclopentyl)methyl]-3-(trifluoromethyl)benzamide], for which the IC50 amounted to 270 nM.

For `O=C(NC(c1cccc(F)c1)C1(O)CCCCC1)c1nccc(C(F)(F)F)c1Cl` (single isomer, unassigned) [Compound 67, 3-chloro-N-[(3-fluorophenyl)(1-hydroxycyclohexyl)methyl]-4-(trifluoromethyl)pyridine-2-carboxamide], 29 nM corresponded to half-maximal inhibition (IC50).

For `CS(=O)(=O)c1cnc(C(F)(F)F)cc1C(=O)NC(c1cccc(F)c1Cl)[C@]1(O)CC[C@@H](F)CC1` (single isomer, unassigned) [Compound 386, N-[(2-chloro-3-fluorophenyl)(cis-4-fluoro-1-hydroxycyclohexyl)methyl]-5-(methylsulfonyl)-2-(trifluoromethyl)pyridine-4-carboxamide], half-maximal inhibition (IC50) was put at 35 nM.

Regarding `CN(C(=O)c1nccc(C(F)(F)F)c1Cl)C(c1cccc(F)c1Cl)[C@]1(O)CC[C@@H](F)CC1` (single isomer, unassigned) [Compound 382, 3-chloro-N-[(2-chloro-3-fluorophenyl)(cis-4-fluoro-1-hydroxycyclohexyl)methyl]-N-methyl-4-(trifluoromethyl)pyridine-2-carboxamide], the IC50 was 740 nM.

For the compound `Cc1ccc(Cl)c(C(=O)NC(c2cccc(F)c2Cl)[C@]2(O)CC[C@@H](F)CC2)c1` (single isomer, unassigned) [Compound 294, 2-chloro-N-[(2-chloro-3-fluorophenyl)(cis-4-fluoro-1-hydroxycyclohexyl)methyl]-5-methylbenzamide], the IC50 is 990 nM.

In turn, `O=C(NC(c1cccc(F)c1Cl)[C@]1(O)CC[C@@H](F)CC1)c1cc(C(F)(F)F)ccc1-n1nccn1` (single isomer, unassigned) [Compound 381, N-[-(2-chloro-3-fluorophenyl)(cis-4-fluoro-1-hydroxycyclohexyl)methyl]-2-(2H-1,2,3-triazol-2-yl)-5-(trifluoromethyl)benzamide] returned an IC50 of 1200 nM.

The compound `O=C(NC(c1cccc(Cl)c1)C1(O)CCCCC1)c1nccc(C(F)(F)F)c1Cl` (centres unmarked) [Compound 212, 3-chloro-N-[(3-chlorophenyl)(1-hydroxycyclohexyl)methyl]-4-(trifluoromethyl)pyridine-2-carboxamide] returned an IC50 of 84 nM.

On to `O=C(NC(c1ccc(F)c(Cl)c1)[C@]1(O)CC[C@@H](F)CC1)c1nccc(C(F)(F)F)c1Cl` (single isomer, unassigned) [Compound 225, 3-chloro-N-[(3-chloro-4-fluorophenyl)(cis-4-fluoro-1-hydroxycyclohexyl)methyl]-4-(trifluoromethyl)pyridine-2-carboxamide], for which it took 390 nM to reach half-maximal inhibition (IC50).

Compound `O=C(N[C@@H](c1cccc(Cl)c1)[C@]1(O)CC[C@@H](F)CC1)c1cc(C(F)(F)F)ncc1Cl` [Compound 227, 5-chloro-N-[(S)-(3-chlorophenyl)(cis-4-fluoro-1-hydroxycyclohexyl)methyl]-2-(trifluoromethyl)pyridine-4-carboxamide] registered an IC50 of 510 nM.

What is called IC50 is the concentration at which inhibition is half-maximal. A low value points to higher potency.

The record behind these values is patent US20160130278A1 (TAISHO PHARMACEUTICAL CO., LTD, priority 2013, published 2016).
